In patent US11905518B2, “Small auxin upregulated (SAUR) gene for the improvement of root system architecture, waterlogging tolerance, drought resistance and yield in plants and methods of uses” (Curators of the University of Missouri, priority 2018, dated 2024):

System: NILs (NIL147_aa and NIL147_AA)
Assay: Waterlogging treatment of NILs with auxin biosynthesis inhibitor PCIB
Assay type: in vivo, soybean
Experimental: FIGS. 7A-7C depict involvement of auxin in the regulation of waterlogging tolerance. Complementation of qWL_Gm03 by auxin biosynthesis inhibitor in waterlogging tolerance (FIG. 7A) and induction of adventitious roots (FIG. 7B). The two lines were waterlogging treated for 10 days using water (control) and 10 μM p-Chlorophen-oxyisobutyric acid (PCIB: an auxin biosynthesis inhibitor). Then plants were allowed to recover for 7 days (left) before evaluation for flooding injury scores and adventitious root rating. Data shown are means±standard deviations of 9 biological replicates (soil pots) and each replicate contains 2 to 3 plants. Student's-t-test was used to compare means between NIL147_aa and NIL147_AA. FIG. 7C Expression of GmARF20 in the roots during waterlogging treatment. GmARF20 in soybean is the closest homologue of AtARF19 in Arabidopsis (Ha et al. 2013). Data shown are means±standard deviations of two biological replicates and each replicate contains 10 plants.
Waterlogging test were performed in both field and greenhouse. Field tests for RIL populations and fine-mapping were conducted at the Lee Farm at the DRC in Portageville, MO The evaluation of NILs were performed at four locations, including DRC (MO), Rhower Research Station (AR), Delta Research and Extension Center (MS) and Red River Research Station (LA). The soil types of the four locations were Sharkey clay (very fine, smectitic, thermic Chromic Epiaquerts). Each lines were planted in hill plots at a density of 8 seeds per plot with 1 meter spacing with 2 to 3 replications. Waterlogging treatments were imposed by flood irrigation. Water was pumped on the field when 80% of the lines within each maturity block were at the R1 growth stage (Fehr and Caviness 1977). […]
Auxin generally promotes root initiation and elongation (reviewed by Overvoorde et al. 2010). Therefore, the involvement of auxin in waterlogging tolerance was further evaluated by the treatment of an auxin biosynthesis inhibitor: p-Chlorophen-oxyisobutyric acid (PCIB) on the NILs (NIL147_aa and NIL147_AA) during waterlogging. […]

[1] = 10 μM PCIB vs water control, waterlogging treated for 10 days, 7 days recovery, NIL147_aa and NIL147_AA

## CC(C)(Oc1ccc(Cl)cc1)C(=O)O [PCIB, p-Chlorophen-oxyisobutyric acid]
10 μM PCIB during waterlogging, NIL147_aa vs NIL147_AA
  genotypic differences of qWL_Gm03 in waterlogging tolerance performance and formation of adventitious/aerial roots: complement the genotypic differences
[1]
  formation of adventitious/aerial roots (adventitious root rating): significantly impair
  waterlogging tolerance (flooding injury scores): significantly impair
